Results taken from patent US11926826B2, “Twist signaling inhibitor compositions and methods of using the same” (City of Hope, priority 2016, dated 2024).

Columns and labels:
Akt = assay: Western blotting of total Akt during cisplatin exposure; assay type: cell-based, human
Method: (§1) Western blotting. Cells were pelleted and washed once with phosphate buffered saline (PBS), then lysed in RIPA buffer. Protein concentration was determined using a BCA assay (Thermo Fisher). Equal masses of protein were run on 4% stacking, 10% resolving polyacrylamide gels, and then transferred to PVDF membrane (GE Healthcare Bio-Sciences, Pittsburgh, PA) using the Trans-Blot SD Semi-Dry Transfer Cell (Bio-Rad). Membranes were blocked in dry milk dissolved in PBS with shaking for 1 hr at room temperature or overnight at 4° C. 3% BSA was used for blocking prior to select pAkt blots to reduce background signal. Primary and secondary antibodies were diluted as indicated below in 5% dry milk in PBS with 0.1-0.2% Tween-20. Incubation was performed at room temperature for one hr or overnight at 4° C. for primary, and at room temperature for one hr for secondary. Each antibody incubation was followed by five 5 min washes in PBS with 0.1% Tween-20. FemtoGlow HRP substrate (Michigan Diagnostics, Royal Oak, MI) and the Pxi4 chemiluminescent imager (Syngene, Frederick, MD) were used to acquire digital images. ECL 2 (Thermo Fisher) and Blue Devil Film (Genesee Scientific) were used to acquire film images. […] For select digital and film westerns, bands were quantified using GeneTools software from Syngene or Image Studio Lite from LiCor (Lincoln, NB), respectively, and normalized to β-Actin.

Ovcar8-IP tumors = assay: Ovcar8-IP intraperitoneal tumor model in NSG mice, MSN-siRNA with or without cisplatin; assay type: in vivo
Method: Animal Studies. The animal studies conducted in these experiments were done in accordance with a protocol approved by the Institutional Animal Care and Use Committee at the City of Hope Beckman Research Institute. A total of 48 female NOD.Cg-Prkdc^scidIl2rg^tm1Wj1/SzJ (NSG) mice (The Jackson Laboratory, Bar Harbor, ME) were used. Ten week old (on average) mice were administered an intraperitoneal injection (IP) of 2.5×10^6 Ovcar8-IP cells in 200 μl of RPMI media. For all studies, mice were placed into four groups: MSN-siQ, MSN-siQ+cisplatin, MSN-si419H, and MSN-si419H+cisplatin (n=4 or n=8). Previous reports show no cellular uptake without MSNs^14, thus a siRNA-only group was not added to this study.
Bioluminescent imaging of mice (using Xenogen IVIS 100 biophotonic imaging system, STTARR, Toronto, Ontario, Canada) commenced seven days after injection of tumor cells in order to ensure engraftment, and continued once a week for four weeks. Mice were given a 100 μl IP injection of 20 mg/ml D-Luciferin (PerkinElmer, Waltham, MA). Ten minutes after the D-luciferin injection, mice were anesthetized with isoflurane (2%-5%) and placed in the biophotonic imager, and images were taken within two minutes. An alfalfa-free version of the regular rodent diet (alfalfa-free CA-1) was administered to the siQ mice to prevent autofluorescence from the regular diet.
IP injections of MSN+siRNA (siQ fluorescently labeled with ALEXAFLUOR® 647 or si419H) were conducted one week after the inoculation of Ovcar8-IP cells and done once or twice per week for a total of four weeks. Mice received 105 μl of 500 ng/μl MSN complexed with 15 μl of 10 μM siRNA per week, divided into one full or two half doses (n=4 and n=8, respectively). This is equivalent to […] MSN/week. Weekly 3 mg/kg IP cisplatin injections were given starting two weeks after initial inoculation of cells.
At completion of the experiment, all animals were euthanized via CO2 asphyxiation. […]
Statistics. All in vivo data was analyzed using one-way ANOVA with correction for multiple comparisons, comparing all groups to MSN-siQ treatment group. […]

TWIST1 = assay: Western blotting of TWIST1 during cisplatin exposure; assay type: cell-based, human; conditions: Ov8GFP-TWIST1 cells; 5 μM cisplatin over 24 hr
Method: as §1

Phospho Akt (Ser473) = assay: Western blotting of Akt phosphorylated at Ser 473 during cisplatin exposure; assay type: cell-based, human; conditions: 24 hr
Method: as §1

A2780R cells = assay: Sulphorhodamine B cell survival assay with cisplatin, A2780R; assay type: cell-based; conditions: without YTZ3-15-si494 treatment
Method: Sulphorhodamine B Cell Survival Assays. A2780R or Ovcar8-IP cells were plated in 6 well plates and allowed to adhere overnight. The following day, cells were transfected with siQ, si419, or si494 as described above—A2780R cells using YTZ3-15 and Ovcar8-IP cells using MSNs. After 48-72 hours, cells were transferred to 96 well plates at 5,000 cells per well and allowed to adhere overnight. The following day cells were treated with cisplatin at a series of concentrations (cells not treated with cisplatin served as controls). After 72 hours, cells were fixed in 10% trichloroacetic acid for 1 hour at 4° C., washed with water, and dried. Cells were stained in 0.4% sulphorhodamine B (SRB) in 1% acetic acid for 15 minutes at room temperature and then washed 3-4 times with 1% acetic acid until no further color was present in the wash. Any stray SRB on the walls of the wells was removed, and stained cells were dried for 10 minutes. SRB was solubilized in 10 mM Tris base and color intensity was quantified by absorbance at 570 nm. Each condition was normalized to its own untreated control.

SMILES: N.N.[Cl][Pt][Cl] [cisplatin]
- increase in Akt levels (Akt; Ov8GFP-TWIST1 cells, siQ, 5 μM cisplatin over 24 hr): 150%
- total Akt levels (Akt; Ov8GFP-sh492 cells, cisplatin over 24 hr): relatively constant
- reduction of metastasis incidence (number of disseminated masses) (Ovcar8-IP tumors; FIG. 21B): approximately 50%
- proportion of mice developing ascites (Ovcar8-IP tumors; n=4 per group): 2/4
- increase in TWIST1 expression (TWIST1): up to 2.3 fold
- increase in proportion of Akt phosphorylated at Ser 473 (Phospho Akt (Ser473); Ov8GFP-TWIST1 cells, siQ, 5 μM cisplatin, normalized to total Akt): 128%
- reduction in phosphorylated Akt (Phospho Akt (Ser473); Ov8GFP-sh492 cells, cisplatin): 63%
- IC50 (A2780R cells): ~200 µM
